From patent US12692254B2, “Benzimidazole inhibitors of PAD enzymes” (BRISTOL-MYERS SQUIBB COMPANY, priority 2018, dated 2026)

Target: human PAD4 (hPAD4) (Homo sapiens, UniProt Q9UM07)
Test: RFMS human PAD4 functional assay (rapid-fire mass spectrum)
Format: biochemical
Conditions: 5 nM hPAD4 enzyme, 250 μM BAEE, 50 μM Calcium; 30 min preincubation, 90 min reaction at 37° C.
Experimental: Compounds of the present invention were assayed as inhibitors of PAD4 using the assay protocol described below.
RFMS tinman PAD4 Functional Assay:
Compounds were solubilized in 100% DMSO to achieve a 10 mM compound concentration. Compound stock solutions were stored at RT. A series of dilutions were prepared in DMSO and mixed 8 times with 20 μl, mixing volume. Final top concentration of compound in the assay is 50 μM. […] 1-90 min enzyme/substrate reaction, 30 min reaction with phenyl glyoxal at 37° C. • Stop solution: 40 μl 5% TCA in ACN
0.13 μL of compound solution was added to 13 μL of 10 nM PAD4 in assay buffer. After 30 min 13 μl of 500 μM of BAEE was added in 25 mM hepes, pH 7.5, 5 mM NaCl, 1 mM DTT, 0.2 mg/ml BS A, 0.01% CHAPS, 50 μM Calcium, 5 μM TPEN was added and the reaction incubated for 90 min at 37° C. The enzymatic reaction was quenched by addition of 15 μl of 6.1N TCA, 100% Final Concentration is 20%, 35 μl of 8.5 mM phenyl glyoxal (final concentration 4 mM) is then added and the reaction is incubated for 30 min at 37° C.
After 30 minutes the plates are spun down to remove all precipitate. The enzyme reaction was quenched with an equal volume of methanol containing internal standard (modified citrulline). Samples were loaded onto the Rapid Fire RF300 system (Agilent) wherein they were first sipped for 1000 ms and then directly loaded to a C18 separations cartridge using a mixture of acetonitrile containing 0.01% formic acid for 3000 ms desalting. The flow rate of the mobile phase was 1.5 ml/min.
The dwell time for each transition was set at 200 ms, and the ESI voltage was used at 5500 with a source temperature of 400° C. Extracted ion peaks for each transition were integrated using the Rapid Fire Integrator software. Peak area of analyte was normalized with internal standard).

Sequence of human PAD4 (hPAD4) (Q9UM07 whole entry): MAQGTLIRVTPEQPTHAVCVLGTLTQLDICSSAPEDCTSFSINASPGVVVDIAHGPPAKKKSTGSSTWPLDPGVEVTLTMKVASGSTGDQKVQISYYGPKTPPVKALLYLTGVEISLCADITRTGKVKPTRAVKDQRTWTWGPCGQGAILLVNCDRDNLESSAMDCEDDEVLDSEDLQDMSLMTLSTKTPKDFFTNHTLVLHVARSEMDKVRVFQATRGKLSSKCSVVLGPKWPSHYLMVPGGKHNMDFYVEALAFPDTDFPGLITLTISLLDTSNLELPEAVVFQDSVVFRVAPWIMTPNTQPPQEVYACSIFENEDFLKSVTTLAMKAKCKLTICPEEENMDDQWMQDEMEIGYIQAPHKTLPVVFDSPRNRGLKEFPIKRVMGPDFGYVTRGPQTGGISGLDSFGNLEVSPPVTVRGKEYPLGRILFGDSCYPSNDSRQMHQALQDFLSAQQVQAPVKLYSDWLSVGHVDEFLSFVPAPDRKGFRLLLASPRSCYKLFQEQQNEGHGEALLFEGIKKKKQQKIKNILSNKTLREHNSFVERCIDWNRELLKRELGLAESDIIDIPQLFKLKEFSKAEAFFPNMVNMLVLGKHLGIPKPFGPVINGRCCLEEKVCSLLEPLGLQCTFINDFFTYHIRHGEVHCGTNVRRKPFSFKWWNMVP

| IC50 | SMILES |
| --- | --- |
| 94 nM | COc1cc(C(=O)N2CC3CCC2[C@@H]3N)cc2nc(-c3cc4cccnc4n3CC3CC3)n(CC3CN(c4cc(Cl)cnc4C#N)C3)c12 (stereo partly drawn) [Example 38, 3-[3-({5-[(1R,4R,7R)-7-amino-2-azabicyclo[2.2.1]heptane-2-carbonyl]-2-[1-(cyclopropylmethyl)-1H-pyrrolo[2,3-b]pyridin-2-yl]-7-methoxy-1H-1,3-benzodiazol-l-yl}methyl)azetidin-1-yl]-5-chloropyridine-2-carbonitrile] |
| 41 nM | COc1cc(C(=O)N2C[C@H]3CC[C@@H]2[C@@H]3N)cc2nc(-c3cc4cccnc4n3CC3CC3)n(CC3CN(C(=O)C#Cc4ccccc4)C3)c12 [Example 109, 1-[3-({5-[(1R,4R,7R)-7-amino-2-azabicyclo[2.2.1]heptane-2-carbonyl]-2-[1-(cyclopropylmethyl)-1H-pyrrolo[2,3-b]pyridin-2-yl]-7-methoxy-1H-1,3-benzodiazol-1-yl}methyl)azetidin-1-yl]-3-phenylprop-2-yn-1-one] |
| 261 nM | COc1cc(C(=O)N2C[C@H](N)C[C@@H](F)C2)cc2nc(-c3cc4ccccc4n3CC3CC3)n(CCCN3CCCC3=O)c12 [Example 274, 1-(3-{5-[(3R,5R)-3-amino-5-fluoropiperidine-1-carbonyl]-2-[1-(cyclopropylmethyl)-1H-indol-2-yl]-7-methoxy-1H-1,3-benzodiazol-1-yl}propyl)pyrrolidin-2-one] |
| 243 nM | COc1cc(C(=O)N2C[C@H]3CC[C@@H]2[C@@H]3N)cc2nc(-c3cc4cccnc4n3CC3CC3)n(CC3CNC3)c12 [Example 306, (1R,4R,7R)-2-{1-[(azetidin-3-yl)methyl]-2-[1-(cyclopropylmethyl)-1H-pyrrolo[2,3-b]pyridin-2-yl]-7-methoxy-1H-1,3-benzodiazole-5-carbonyl}-2-azabicyclo[2.2.1]heptan-7-amine] |
| 216 nM | COc1cc(C(=O)N2C[C@H]3CC[C@@H]2[C@@H]3N)cc2nc(-c3cc4cccnc4n3CC3CC3)n(C3CN(c4cnc(C#N)nc4)C3)c12 [Example 75, 5-(3-{5-[(1R,4R,7R)-7-amino-2-azabicyclo[2.2.1]heptane-2-carbonyl]-2-[1-(cyclopropylmethyl)-1H-pyrrolo[2,3-b]pyridin-2-yl]-7-methoxy-1H-1,3-benzodiazol-1-yl}azetidin-1-yl)pyrimidine-2-carbonitrile] |
| 501 nM | COc1cc(C(=O)N2C[C@H](N)C[C@@H](F)C2)cc2nc(-c3cc4cccnc4n3CC3CC3)n(Cc3cc(C)nn3C)c12 [Example 515, (3R,5R)-1-{2-[1-(cyclopropylmethyl)-1H-pyrrolo[2,3-b]pyridin-2-yl]-1-[(1,3-dimethyl-1H-pyrazol-5-yl)methyl]-7-methoxy-1H-1,3-benzodiazole-5-carbonyl}-5-fluoropiperidin-3-amine] |
| 86 nM | COc1cc(C(=O)N2C[C@H]3CC[C@@H]2[C@@H]3N)cc2nc(-c3cc4cccnc4n3CC3CC3)n(CC3CN(c4ncc(Br)cn4)C3)c12 [Example 32, (1R,4R,7R)-2-(1-{[1-(5-bromopyrimidin-2-yl)azetidin-3-yl]methyl}-2-[1-(cyclopropylmethyl)-1H-pyrrolo[2,3-b]pyridin-2-yl]-7-methoxy-1H-1,3-benzodiazole-5-carbonyl)-2-azabicyclo[2.2.1]heptan-7-amine] |
| 19 nM | COc1cc(C(=O)N2C[C@H]3CC[C@@H]2[C@@H]3N)cc2nc(-c3cc4ccccc4n3CC3CC3)n(CC3CN(C(=O)c4ccc(-c5ccc(O)cc5)cc4)C3)c12 [Example 149, 4′-[3-({5-[(1R,4R,7R)-7-amino-2-azabicyclo[2.2.1]heptane-2-carbonyl]-2-[1-(cyclopropylmethyl)-1H-indol-2-yl]-7-methoxy-1H-1,3-benzodiazol-1-yl}methyl)azetidine-1-carbonyl]-[1,1′-biphenyl]-4-ol] |
| 2720 nM | COc1cc(C(=O)N2C[C@H]3CC[C@@H]2[C@@H]3N)cc2nc(-c3cc4cccnc4n3CC3CC3)n(C3CN(C(=O)c4ccnc(F)c4)C3)c12 [Example 193, (1R,4R,7R)-2-{2-[1-(cyclopropylmethyl)-1H-pyrrolo[2,3-b]pyridin-2-yl]-1-[1-(2-fluoropyridine-4-carbonyl)azetidin-3-yl]-7-methoxy-1H-1,3-benzodiazole-5-carbonyl}-2-azabicyclo[2.2.1]heptan-7-amine] |
| 111 nM | COc1cc(C(=O)N2C[C@H]3CC[C@@H]2[C@@H]3N)cc2nc(-c3cc4cccnc4n3CC3CC3)n(C3CN(C(=O)c4ccc(Cl)nc4)C3)c12 [Example 99, (1R,4R,7R)-2-{1-[1-(6-chloropyridine-3-carbonyl)azetidin-3-yl]-2-[1-(cyclopropylmethyl)-1H-pyrrolo[2,3-b]pyridin-2-yl]-7-methoxy-1H-1,3-benzodiazole-5-carbonyl}-2-azabicyclo[2.2.1]heptan-7-amine] |
| 37 nM | COc1cc(C(=O)N2CC3CCC2[C@@H]3N)cc2nc(-c3cc4cccnc4n3CC3CC3)n(C[C@@H]3CCN(c4ccnc(C#N)n4)C3)c12 (stereo partly drawn) [Example 205, 4-[(3R)-3-({5-[(1R,4R,7R)-7-amino-2-azabicyclo[2.2.1]heptane-2-carbonyl]-2-[1-(cyclopropylmethyl)-1H-pyrrolo[2,3-b]pyridin-2-yl]-7-methoxy-1H-1,3-benzodiazol-1-yl}methyl)pyrrolidin-l-yl]pyrimidine-2-carbonitrile] |
| 237 nM | COc1cc(C(=O)N2C[C@H]3CC[C@@H]2[C@@H]3N)cc2nc(-c3cc4cccnc4n3CC3CC3)n(CC3CCN(C(=O)c4ccnc(Cl)n4)CC3)c12 [Example 230, (1R,4R,7R)-2-(1-{[1-(2-chloropyrimidine-4-carbonyl)piperidin-4-yl]methyl}-2-[1-(cyclopropylmethyl)-1H-pyrrolo[2,3-b]pyridin-2-yl]-7-methoxy-1H-1,3-benzodiazole-5-carbonyl)-2-azabicyclo[2.2.1]heptan-7-amine] |
| 114 nM | COc1cc(C(=O)N2C[C@H]3CC[C@@H]2[C@@H]3N)cc2nc(-c3cc4ccccc4n3CC3CC3)n(Cc3ccon3)c12 [Example 268, (1R,4R,7R)-2-{2-[1-(cyclopropylmethyl)-1H-indol-2-yl]-7-methoxy-1-[(1,2-oxazol-3-yl)methyl]-1H-1,3-benzodiazole-5-carbonyl}-2-azabicyclo[2.2.1]heptan-7-amine] |
| 590 nM | Cn1cc(Cn2c(-c3cc4ccccc4n3CC3CC3)nc3cc(C(=O)N4C[C@H](N)C[C@@H](F)C4)cc(Cl)c32)cn1 [Example 517, (3R,5R)-1-{7-chloro-2-[1-(cyclopropylmethyl)-1H-indol-2-yl]-1-[(1-methyl-1H-pyrazol-4-yl)methyl]-1H-1,3-benzodiazole-5-carbonyl}-5-fluoropiperidin-3-amine] |
| 50 nM | COc1cc(C(=O)N2CC3CCC2[C@@H]3N)cc2nc(-c3cc4ccccc4n3CC3CC3)n(Cc3cnn(-c4cnc(C#N)c(F)c4)c3)c12 (stereo partly drawn) [Example 394, 5-[4-({5-[(7R)-7-amino-2-azabicyclo[2.2.1]heptane-2-carbonyl]-2-[1-(cyclopropyimethyl)-1H-indol-2-yl]-7-methoxy-1H-1,3-benzodiazol-1-yl}methyl)-1H-pyrazol-1-yl]-3-fluoropyridine-2-carbonitrile] |
| 34 nM | COc1cc(C(=O)N2CC3CCC2[C@@H]3N)cc2nc(-c3cc4ccccc4n3CC3CC3)n(CC3CN(C(=O)c4ccncn4)C3)c12 (stereo partly drawn) [Example 437, (7R)-2-{2-[1-(cyclopropylmethyl)-1H-indol-2-yl]-7-methoxy-1-{[1-(pyrimidine-4-carbonyl)azetidin-3-yl]methyl}-1H-1,3-benzodiazole-5-carbonyl}-2-azabicyclo[2.2.1]heptan-7-amine] |
| 125 nM | COc1cc(C(=O)N2CC3CCC2[C@@H]3N)cc2nc(-c3cc4cccnc4n3CC3CC3)n(Cc3ccn(C)n3)c12 (stereo partly drawn) [Example 499, (7R)-2-{2-[1-(cyclopropylmethyl)-1H-pyrrolo[2,3-b]pyridin-2-yl]-7-methoxy-1-[(1-methyl-1H-pyrazol-3-yl)methyl]-1H-1,3-benzodiazole-5-carbonyl}-2-azabicyclo[2.2.1]heptan-7-amine] |
| 63 nM | COc1cc(C(=O)N2CC3CCC2[C@@H]3N)cc2nc(-c3cc4ccccc4n3CC3CC3)n(CC3CN(C(=O)c4cccs4)C3)c12 (stereo partly drawn) [Example 457, (7R)-2-{2-[1-(cyclopropylmethyl)-1H-indol-2-yl]-7-methoxy-1-{[1-(thiophene-2-carbonyl)azetidin-3-yl]methyl}-1H-1,3-benzodiazole-5-carbonyl}-2-azabicyclo[2.2.1]heptan-7-amine] |
| 102 nM | COc1cc(C(=O)N2C[C@H]3CC[C@@H]2[C@@H]3N)cc2nc(-c3cc4cccnc4n3CC3CC3)n(CC3CN(C(=O)c4ccnc(N)n4)C3)c12 [Example 125, (1R,4R,7R)-2-(1-{[1-(2-aminopyrimidine-4-carbonyl)azetidin-3-yl]methyl}-2-[1-(cyclopropylmethyl)-1H-pyrrolo[2,3-b]pyridin-2-yl]-7-methoxy-1H-1,3-benzodiazole-5-carbonyl)-2-azabicyclo[2.2.1]heptan-7-amine] |
